In PubChem BioAssay AID1959 (Broad Institute, 2009):
Activity calls are given as the source filed them.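 Rule for the calls: active = growth-inhibition EC50 no more than tenfold above the top tested dose; inconclusive = flat fit between 30% and 70% inhibition, or unreliable fit; inactive = EC50 more than tenfold above the top tested dose.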

What follows are compounds tested on E. coli NEB5alpha growth, BacTiter-Glo luminescence, 4 h (assay: antibacterial activity against E. coli NEB5alpha – luminescence, counter-screen for MEX-5/POS-1 RNA-binding inhibitor project, dose response (AID 1959);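 note: pUC19-transformed ampicillin-resistant cells grown in LB with ampicillin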).
With `CC1=CC(=C(C#N)c2nc3ccccc3s2)C=C(C)N1CC1CCCO1` (stereo unspecified) the EC50 was > 11 µM (inactive).
With `O=C(N/N=C/c1cccn1-c1cccc(C(=O)O)c1)Nc1ccccc1` the EC50 was > 11 µM (inactive).
`NC(=Nc1ccc(N)cc1)C(N)=Nc1ccc(N)cc1` was tested, and the EC50 was > 11 µM (inactive).
For `CCOC(=O)C1CCN(C(=O)c2ccc3c(c2)NC(=O)/C(=C\c2ccc(C)cc2)S3)CC1`, the EC50 was > 11 µM (inactive).
For `Oc1ccc(/C=N/Nc2ncnc3nc[nH]c23)cc1`, the EC50 was > 11 µM (inactive).
In the case of `COc1cc(C2NC(=S)NC(C)=C2C(=O)OC(C)C)ccc1OC(C)C` (stereo unspecified), the EC50 was > 11 µM (inactive).
In the case of `CC1(OC(=O)c2ccco2)C(=O)C=C2C=C(C3CC3)OC=C2C1=O` (stereo unspecified), the EC50 was > 11 µM (inactive).
In the case of `COc1ccc(/C(C)=N/Nc2nc3ccccc3nc2C)cc1OC`, the EC50 was > 11 µM (inactive).
For `COc1cc(C2C(C#N)=C(N)OC3=C2C(=O)CCC3)cc(OC)c1OC(=O)N1CCOCC1` (stereo unspecified), the EC50 was > 11 µM (inactive).
In the case of `CCOc1ccc(N2C(=O)/C(=C/c3ccc(C)o3)C(=O)NC2=S)cc1`, the EC50 was > 11 µM (inactive).
With `O=C(N/N=C/c1cc(Cl)cc([N+](=O)[O-])c1O)C(O)(c1ccccc1)c1ccccc1` the EC50 was > 11 µM (inactive).
In the case of `CC(=O)Oc1oc(-c2ccccc2)nc1C=Nc1ccc(N(C)C)cc1`, the EC50 was > 11 µM (inactive).
With `O=C(O[C@@H]1Cc2c(O)cc(O)cc2O[C@@H]1c1cc(O)c(O)c(O)c1)c1cc(O)c(O)c(O)c1` the EC50 was > 11 µM (inactive).
With `CC[C@H](C)/C=C(C)/C=C/C1=CC2=C(Cl)C(=O)[C@@](C)(OC(C)=O)C(=O)C2=CO1` the EC50 was > 11 µM (inactive).
In the case of `O=C(O)c1cc(-c2ccc(/C=C3\NC(=O)N(c4ccc(Cl)cc4)C3=O)o2)ccc1Cl`, the EC50 was > 11 µM (inactive).
With `COc1cccc(C2C(C#N)=C(N)OC3=C2C(=O)CC(c2ccco2)C3)c1OCc1ccc(F)cc1` (stereo unspecified) the EC50 was > 11 µM (inactive).
`CCCn1c(N)c(N(CCOC)C(=O)Cc2ccc(S(=O)(=O)N3CCOCC3)s2)c(=O)[nH]c1=O` was tested, and the EC50 was > 11 µM (inactive).
For `O=C1/C(=C/c2ccc(Br)cc2)Oc2cc(O)ccc21`, the EC50 was > 11 µM (inactive).
`Cc1cccc(N2C(=O)/C(=C/c3ccc(CN(CCC#N)S(C)(=O)=O)o3)C(=O)NC2=S)c1` was tested, and the EC50 was > 11 µM (inactive).
With `Cc1ccc(S(=O)(=O)N2CCOCC2)cc1C(=O)Nc1ccc(S(=O)(=O)Nc2nccs2)cc1` the EC50 was > 11 µM (inactive).
`Cc1c(C(=O)O)cccc1-n1c(C)cc(/C=C(/C#N)C(=O)NCc2ccccc2)c1C` was tested, and the EC50 was > 11 µM (inactive).
With `Cc1cccn2c(=O)c3cc(S(=O)(=O)c4ccccc4)c(=N)n(CC4CCCO4)c3nc12` (stereo unspecified) the EC50 was > 11 µM (inactive).
`Cc1ccc(N2C(=O)NC(=O)/C(=C\c3cc(C)n(-c4ccc(C(=O)O)cc4)c3C)C2=O)cc1` was tested, and the EC50 was > 11 µM (inactive).
With `Nc1nc(Sc2ccc([N+](=O)[O-])cc2[N+](=O)[O-])n[nH]1` the EC50 was > 11 µM (inactive).
For `Cn1c(O)c(C=Nc2ccc(N3CCOCC3)cc2)c(=O)n(C)c1=S`, the EC50 was > 11 µM (inactive).
For `O=c1oc2ccc(Cl)cc2nc1/C=C(\O)c1cccs1`, the EC50 was > 11 µM (inactive).
`COC(=O)[C@@H]1[C@H]2C[C@H]3c4[nH]c5ccccc5c4CCN3C[C@@H]2CC[C@@H]1O` was tested, and the EC50 was > 11 µM (inactive).
In the case of `Cn1cccc1/C=C1\C(=O)NC(=O)N(Cc2ccco2)C1=O`, the EC50 was > 11 µM (inactive).
`O=C/C(=C\Nc1ccccn1)c1nc2cc(Cl)ccc2o1` was tested, and the EC50 was > 11 µM (inactive).
With `CCOc1cc(C2C(C#N)=C(N)OC3=C2C(=O)CC(C)(C)C3)cc([N+](=O)[O-])c1O` (stereo unspecified) the EC50 was > 11 µM (inactive).
With `CC1(C)CC(=O)C2=C(C1)OC(N)=C(C#N)C2c1ccccc1` (stereo unspecified) the EC50 was > 11 µM (inactive).
For `Cc1noc(C)c1S(=O)(=O)NC1CCN(Cc2ccccc2)CC1`, the EC50 was > 11 µM (inactive).
For `COc1ccc(C2C(C#N)=C(N)OC3=C2C(=O)CCC3)cc1Cn1nc(C)c([N+](=O)[O-])c1C` (stereo unspecified), the EC50 was > 11 µM (inactive).
`CCCCn1c(O)c(/C=N/NC(=O)c2ccncc2)c(=O)[nH]c1=O` was tested, and the EC50 was > 11 µM (inactive).
`CCOC(=O)c1c(-n2c(C)cc(C=C3C(=O)NC(=O)NC3=O)c2C)sc2c1CCCC2` was tested, and the EC50 was > 11 µM (inactive).
`CCOc1ccc(N2C(=O)S/C(=C\c3cccn3C)C2=O)cc1` was tested, and the EC50 was > 11 µM (inactive).
With `O=C(O)CCN1C(=O)/C(=C/c2ccc(-c3nc4ccccc4s3)o2)SC1=S` the EC50 was > 11 µM (inactive).
With `O=C(N/N=C/C=C/c1ccc([N+](=O)[O-])cc1)c1cccs1` the EC50 was > 11 µM (inactive).
In the case of `COc1cc(C2C3CN(C)CC=C3C(C#N)=C(N)C2(C#N)C#N)ccc1OC(C)C` (stereo unspecified), the EC50 was > 11 µM (inactive).
In the case of `COC(=O)Cn1cc(/C=C2\C(=O)NC(=O)N(c3ccccc3)C2=O)c2ccccc21`, the EC50 was > 11 µM (inactive).
With `O=C(NCCOc1ccccc1)C1Nc2ccc(OC(F)(F)F)cc2C2C=CCC12` (stereo unspecified) the EC50 was > 11 µM (inactive).
With `Cc1cccn2c(=O)c3cc(C(=O)NC4CCCC4)c(=N)n(CCc4ccccc4)c3nc12` the EC50 was > 11 µM (inactive).
For `CC(C)(C)OC(=O)NCCCCC1=CC2=CC(=O)C(C)(OC(=O)c3ccco3)C(=O)C2=CO1` (stereo unspecified), the EC50 was > 11 µM (inactive).
For `CCc1ccc(NC(=O)/C(C#N)=C/c2cc3ccc(C)cc3nc2N2CCOCC2)cc1`, the EC50 was > 11 µM (inactive).
In the case of `CCn1cc(C=C2C(=O)N(C)C(=O)N(C)C2=O)c2ccccc21`, the EC50 was > 11 µM (inactive).
In the case of `O=C(N[C@H]1CP(=O)(Oc2ccccc2)O[C@H](COCc2ccccc2)[C@H]1O)C(Cl)(Cl)Cl` (stereo partly specified), the EC50 was > 11 µM (inactive).
